In paper PMC10914731, “Homo-BacPROTAC-induced degradation of ClpC1 as a strategy against drug-resistant mycobacteria” (Nature Communications, 2024):
Where “and” joins values, the source holds several entries; their conditions need not be identical. Equal values may be shown once. Read-outs that look alike come from different tables or passages of the source. *1 amine or outer side, *2 acyl side, *3 side chain or, on linkers, in order; H or OH if unused. Where a SMILES comes first, the peptide text is derived from it. Bridges are numbered along the chain shown (N, C = ends). Roman numbers before positions name the chains, in order. [ ]: non-standard residue; d: D form. ξ: configuration not given here. X10 = CN([C@@H](Cc1cn(CC=[*:3])c2ccccc12)C(=O)[*:2])[*:1]; X3 = C#CCOc1ccc([C@@H](OC)[C@H](N[*:1])C(=O)[*:2])cc1; NMeLeu(5-OH,4R) = CN[C@@H](C[C@@H](C)CO)C(=O)O; Phe(βR-OMe) = CO[C@H](c1ccccc1)[C@H](N)C(=O)O; ξNMeTrp(1-Me) = CNC(Cc1cn(C)c2ccccc12)C(=O)O; X8 = CC(CO)C[C@@H](C(=O)[*:2])N(C)[*:1]; NMeL = CN[C@@H](CC(C)C)C(=O)O; ξV = CC(C)C(N)C(=O)O

How the values were obtained:
[1] = type: in vitro ADME, Rat
Method: (§1) Cryopreserved hepatocytes are incubated in an appropriate buffer system containing 50% species serum. Following an acclimation period (15–30 min) in an incubator (37 °C, 5−10% CO2, 85–95% humidity) the test compound is added to the hepatocyte suspension (pH 7.4, typical cell density of about 1 million cells/mL; final concentration of test compound is 1 µM, final DMSO concentration <0.05% v/v). The cells are incubated for up to 6 h and samples are taken at 6 different time points. Samples are then quenched with acetonitrile and pelleted by centrifugation. The remaining amount of parent compound in the supernatants is then analysed by HPLC-MS/MS. Clearance is calculated from compound half-lives using the well-stirred liver model and is converted to clearance stated as % of the liver blood flow (% Qh).

[2] = type: in vitro ADME, Human; settings: for Hepatocyte Human: clearance in hepatocytes
Method: as §1

in vitro = settings: human; for Papp A→B: apical to basolateral; for Papp B→A: basolateral to apical
Description: (§2) Supplementary Table 1. Structure-Activity Relationships part 1 (SPR, Caco-2) […]
(§3) SPR. Mean values ± standard deviation. Footnotes indicate the number of measurements performed for the respective compound: a) n = […]
(§4) [5] Permeability across Caco-2 monolayers in P(A−B): apical to basolateral and P(B−A): basolateral to apical direction (values reported in 10-
(§5) 6 cm s-1); efflux ratio = P(B−A)/P(A−B); Int. perm: mean value of P(A−B) and P(B−A). […] Influence of Trp-Nα methylation on P(A-B) and efflux
(§6) ratio. Bold: positive influence.

Caco-2 monolayers = test: in vitro
Description: as §2, §3, §4, §5, §6

[3] = target: ClpC1 NTD protein (M. tuberculosis) (Mycobacterium tuberculosis, UniProt P9WPC9); test: biochemical; type: binding
Sequence of ClpC1 NTD protein (M. tuberculosis) (P9WPC9 1-156, looked up, natural form): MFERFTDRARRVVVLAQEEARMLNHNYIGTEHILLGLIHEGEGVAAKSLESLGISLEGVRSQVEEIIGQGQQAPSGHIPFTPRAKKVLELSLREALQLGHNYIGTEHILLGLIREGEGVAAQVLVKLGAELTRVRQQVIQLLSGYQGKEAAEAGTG

[4] = Hepatocyte stability, mice; type: in vitro ADME; settings: for Hepatocyte Mice: clearance in hepatocytes
Method: as §1

[5] = target: ClpC1-NTD substrate, M. tuberculosis ClpC1P1P2 (Mycobacterium tuberculosis, UniProt P9WPC9); test: biochemical; type: biochemical
Sequence of ClpC1-NTD substrate, M. tuberculosis ClpC1P1P2 (P9WPC5 whole entry): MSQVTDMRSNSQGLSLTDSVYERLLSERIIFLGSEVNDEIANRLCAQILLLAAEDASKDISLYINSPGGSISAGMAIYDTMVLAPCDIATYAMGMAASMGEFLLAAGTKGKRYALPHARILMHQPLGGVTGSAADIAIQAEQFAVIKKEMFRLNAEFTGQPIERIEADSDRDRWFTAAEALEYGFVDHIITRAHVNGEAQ
Sequence of ClpC1-NTD substrate, M. tuberculosis ClpC1P1P2 (P9WPC9 whole entry): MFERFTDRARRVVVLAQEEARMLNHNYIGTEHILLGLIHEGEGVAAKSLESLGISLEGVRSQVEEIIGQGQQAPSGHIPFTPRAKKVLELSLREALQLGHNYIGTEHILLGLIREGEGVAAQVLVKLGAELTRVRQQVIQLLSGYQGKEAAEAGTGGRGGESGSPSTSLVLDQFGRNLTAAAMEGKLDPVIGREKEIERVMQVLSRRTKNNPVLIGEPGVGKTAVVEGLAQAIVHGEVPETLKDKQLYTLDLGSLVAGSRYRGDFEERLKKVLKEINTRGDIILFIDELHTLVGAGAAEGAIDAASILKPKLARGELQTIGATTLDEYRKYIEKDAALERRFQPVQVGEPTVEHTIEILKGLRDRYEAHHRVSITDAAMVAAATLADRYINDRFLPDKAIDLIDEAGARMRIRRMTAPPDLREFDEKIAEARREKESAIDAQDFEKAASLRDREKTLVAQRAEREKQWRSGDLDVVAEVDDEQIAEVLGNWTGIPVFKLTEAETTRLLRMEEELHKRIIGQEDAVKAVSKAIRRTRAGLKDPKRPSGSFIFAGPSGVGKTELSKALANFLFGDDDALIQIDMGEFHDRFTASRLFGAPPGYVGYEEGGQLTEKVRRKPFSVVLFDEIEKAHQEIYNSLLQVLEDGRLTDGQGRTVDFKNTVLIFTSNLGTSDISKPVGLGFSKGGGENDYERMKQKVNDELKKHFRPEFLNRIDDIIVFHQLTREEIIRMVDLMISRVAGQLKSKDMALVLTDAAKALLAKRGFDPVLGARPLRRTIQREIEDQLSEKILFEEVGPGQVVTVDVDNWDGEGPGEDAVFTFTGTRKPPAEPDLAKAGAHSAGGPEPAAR
Sequence of ClpC1-NTD substrate, M. tuberculosis ClpC1P1P2 (P9WPC3 whole entry, further chain): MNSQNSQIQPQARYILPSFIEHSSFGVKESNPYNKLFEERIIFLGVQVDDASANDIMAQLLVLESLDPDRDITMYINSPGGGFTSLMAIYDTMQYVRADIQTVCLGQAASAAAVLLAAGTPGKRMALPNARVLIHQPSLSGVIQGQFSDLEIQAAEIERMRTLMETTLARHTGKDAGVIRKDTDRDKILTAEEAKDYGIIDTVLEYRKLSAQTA

[6] = target: His6-tagged ClpC1-NTD substrate, M. smegmatis ClpC1P1P2 (UniProt A0R574+P9WPC9); test: biochemical; type: biochemical
Sequence of His6-tagged ClpC1-NTD substrate, M. smegmatis ClpC1P1P2 (P9WPC9 1-156, looked up, natural form): as the sequence (P9WPC9 1-156, looked up, natural form) above
Sequence of His6-tagged ClpC1-NTD substrate, M. smegmatis ClpC1P1P2 (A0R574 whole entry): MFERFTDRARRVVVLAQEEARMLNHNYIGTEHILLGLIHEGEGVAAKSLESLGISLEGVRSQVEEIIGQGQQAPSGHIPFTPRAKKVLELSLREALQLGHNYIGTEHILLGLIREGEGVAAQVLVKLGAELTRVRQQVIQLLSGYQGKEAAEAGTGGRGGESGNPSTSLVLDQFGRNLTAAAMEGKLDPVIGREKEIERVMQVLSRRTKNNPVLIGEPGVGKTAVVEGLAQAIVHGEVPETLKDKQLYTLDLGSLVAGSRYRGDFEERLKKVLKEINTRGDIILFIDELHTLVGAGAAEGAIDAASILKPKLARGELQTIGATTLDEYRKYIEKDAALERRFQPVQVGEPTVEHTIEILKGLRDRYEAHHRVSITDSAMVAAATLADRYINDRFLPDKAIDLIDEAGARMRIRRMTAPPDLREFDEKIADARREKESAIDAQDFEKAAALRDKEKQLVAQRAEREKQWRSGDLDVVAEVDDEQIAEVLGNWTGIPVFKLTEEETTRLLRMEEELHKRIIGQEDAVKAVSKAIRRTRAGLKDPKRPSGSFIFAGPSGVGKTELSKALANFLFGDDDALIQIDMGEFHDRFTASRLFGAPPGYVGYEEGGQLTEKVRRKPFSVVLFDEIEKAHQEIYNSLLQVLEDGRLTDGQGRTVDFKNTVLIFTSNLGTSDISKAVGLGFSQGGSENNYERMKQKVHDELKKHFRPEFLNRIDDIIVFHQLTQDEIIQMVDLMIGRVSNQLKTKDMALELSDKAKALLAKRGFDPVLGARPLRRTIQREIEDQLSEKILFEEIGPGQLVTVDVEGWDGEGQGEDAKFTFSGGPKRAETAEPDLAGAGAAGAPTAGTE

[7] = Caco-2, Caco-2 permeability P (A-B)
[8] = mean value of P(A−B) and P(B−A)
[9] = read-out: DC50, single measurements
[10] = read-out: KD ClpC1-NTD Mean ± SD
[11] = SPR (Supplementary Table 1), read-out: KD ClpC1-NTD Mean ± SD
[12] = SPR, single independent measurements, read-out: KD ClpC1-NTD

Compound | Hepatocyte Stability Rat QH ([1]; Rat) [%] | Hepatocyte Rat ([1]; clearance in hepatocytes) [%Qh] | Hepatocyte Stability Human QH ([2]; Human) [%] | Papp A→B (in vitro; Caco-2, CACO permeability PEAB) [×10⁻⁶ cm/s] | Papp B→A (in vitro; Caco-2, CACO permeability PEBA) [×10⁻⁶ cm/s] | Papp A→B (in vitro; [7]) [×10⁻⁶ cm/s] | CACO permeability PEBA (Caco-2 monolayers; basolateral to apical) [cm/s] | Caco-2 Int. Perm (Caco-2 monolayers; [8]) | Hepatocyte Stability Mouse QH ([4]; Mouse) [%] | Hepatocyte Mice [4] [%Qh] | Hepatocyte Rat [1] [%Qh] | Hepatocyte Stability Rat QH [1] [%] | Hepatocyte Stability Human QH [2] [%] | CACO permeability PEBA (Caco-2 monolayers; Caco-2) [cm/sec] | Caco-2 Int. Perm (Caco-2 monolayers; Caco-2) | Caco-2 permeability P (A-B) (Caco-2 monolayers; Caco-2) | Caco-2 permeability P (B-A) (Caco-2 monolayers; Caco-2) | koff ClpC1-NTD [3] | Kd ([3]; read-out: KD ClpC1-NTD) | Hepatocyte Stability Mouse QH [4] [%] | other results
CCCCCn1cc(C[C@@H]2NC(=O)[C@H](CC(C)C)N(C)C(=O)[C@H](C(C)C)NC(=O)[C@H]([C@H](OC)c3ccccc3)NC(=O)[C@H](C)NC(=O)[C@H](C[C@@H](C)CO)N(C)C(=O)[C@H](Cc3cn(C)c4ccccc34)NC2=O)nn1 [Compound 24] | 33.303 | 33 | 17.172 | < 0.27 | 13 | < 0.3 | 0.000011 | 5.6 10-6 cm s-1 | 35.166 | 35 | – | – | – | – | – | – | – | – | – | – | Kd ([3]; SPR, individual measurements (source data), read-out: KD ClpC1-NTD): 4.68 nM and 4.44 nM; Kd ([3]; SPR, read-out: ClpC1-NTD KD Mean ± SD): 4.6 ± 0.2 nM
CO[C@H](c1ccccc1)[C@@H]1NC(=O)[C@H](C)NC(=O)[C@H](C[C@@H](C)CO)N(C)C(=O)[C@H](Cc2cn(C/C=C/Cn3cc(C[C@H]4C(=O)N(C)[C@@H](C[C@@H](C)CO)C(=O)N[C@@H](C)C(=O)N[C@@H]([C@H](OC)c5ccccc5)C(=O)N[C@@H](C(C)C)C(=O)N(C)[C@@H](CC(C)C)C(=O)N[C@@H](C(C)C)C(=O)N4C)c4ccccc43)c3ccccc23)N(C)C(=O)[C@H](C(C)C)NC(=O)[C@H](CC(C)C)N(C)C(=O)[C@H](C(C)C)NC1=O [Compound 28] (I: cyclo(A[Phe(βR-OMe)]V[NMeL]V[X10][NMeLeu(5-OH,4R)]) / II: cyclo(A[Phe(βR-OMe)]V[NMeL]V[X10][NMeLeu(5-OH,4R)]); staple (E) I:6-II:6) | – | – | – | – | – | – | – | – | – | 15 | 6 | 6.357 | 12.386 | <0.00000039 | 0.66 10-6 cm s-1 | 0.9 10-6 cm s-1 | < 0.4 10-6 cm s-1 | 1E-3 1E-3 1/s | 1.73 nM and 1.92 nM | 15.001 | Permeability Correlation P (A-B) (Caco-2 monolayers; Caco-2): 0.4; koff ClpC1-NTD Mean ± SD [3]: 0.001 ± 6e-05 s⁻¹; Kd ([3]; read-out: ClpC1-NTD KD Mean ± SD): 1.8 ± 0.1 nM
CO[C@H](c1ccccc1)[C@@H]1NC(=O)[C@H](C)NC(=O)[C@H](C[C@@H](C)CO)N(C)C(=O)[C@H](Cc2cn(CCCCn3cc(C[C@H]4C(=O)N(C)[C@@H](C[C@@H](C)CO)C(=O)N[C@@H](C)C(=O)N[C@@H]([C@H](OC)c5ccccc5)C(=O)N[C@@H](C(C)C)C(=O)N(C)[C@@H](CC(C)C)C(=O)N[C@@H](C(C)C)C(=O)N4C)c4ccccc43)c3ccccc23)N(C)C(=O)[C@H](C(C)C)NC(=O)[C@H](CC(C)C)N(C)C(=O)[C@H](C(C)C)NC1=O [SI-61] | – | – | – | – | – | – | – | – | – | 15 | 6 | 6.192 | 12.386 | <0.000 | 2.75 10-6 cm s-1 | < 4.2 10-6 cm s-1 | < 1.3 10-6 cm s-1 | 8E-4 5E-4 1/s | 0.581 nM and 0.49 nM | 15.001 | 1-Dmax, Mean [5]: 42%; 1-Dmax, single measurements [5]: 36.8% and 46.3%; DC50 ([5]; read-out: DC50, Mean): 7200 nM; DC50 [5, 9]: 7300 nM and 7000 nM; CACO permeability PEAB (Caco-2 monolayers; Caco-2): <0.000 cm/sec; Kd [3, 10]: 0.54 ± 0.06 nM; 1-Dmax, Mean [6]: 42%; 1-Dmax, single measurements [6]: 37.4% and 43.6% and 42.4% and 44.3%; DC50 ([6]; read-out: DC50, Mean): 5300 nM; DC50 [6, 9]: 5.3 µM (2×) and 4.6 µM and 5.8 µM
C#CCOc1ccc([C@@H](OC)[C@@H]2NC(=O)[C@@H](C)NC(=O)[C@H](CC(C)CO)N(C)C(=O)C(Cc3cn(C)c4ccccc34)N(C)C(=O)C(C(C)C)NC(=O)[C@H](CC(C)C)N(C)C(=O)[C@@H](C(C)C)NC2=O)cc1 (stereo partly drawn) [SI-64] (cyclo([NMeL][ξV][ξNMeTrp(1-Me)][X8][dA][X3][dV])) | 49.748 | 50 | 21.688 | 17 | 44 | – | 0.000042999999999999995 | 29.0 10-6 cm s-1 | 34.335 | 34 | – | – | – | – | – | – | – | – | – | – | Hepatocyte Human [2]: 22 %Qh; efflux ratio (in vitro; Caco-2): 2.9; CACO permeability PEAB (Caco-2 monolayers; apical to basolateral): 0.000014999999999999999 cm/s; Permeability Correlation P (A-B) (Caco-2 monolayers; influence of Trp-Nα methylation on P(A-B), matched pair, listed under the methylated partner): > 75; Permeability Correlation Ratio (Caco-2 monolayers; influence of Trp-Nα methylation on efflux ratio, matched pair, listed under the methylated partner): > 31; Kd [3, 11]: 11 ± 1 nM; Kd [3, 12]: 12.1 nM and 10.5 nM
COC(c1ccc(OCc2cn(CCOCCOCCOCCOCCn3cc(COc4ccc(C(OC)C5NC(=O)C(C)NC(=O)C(CC(C)CO)N(C)C(=O)C(Cc6cn(C)c7ccccc67)N(C)C(=O)C(C(C)C)NC(=O)C(CC(C)C)N(C)C(=O)C(C(C)C)NC5=O)cc4)nn3)nn2)cc1)C1NC(=O)C(C)NC(=O)C(CC(C)CO)N(C)C(=O)C(Cc2cn(C)c3ccccc23)N(C)C(=O)C(C(C)C)NC(=O)C(CC(C)C)N(C)C(=O)C(C(C)C)NC1=O (stereo not drawn) [SI-65] | – | – | – | – | – | – | – | – | – | – | – | 16.284 | 12.386 | <0.0000051 | 6.9 10-6 cm s-1 | – | – | 5E-3 1E-2 1/s | 2.29 nM and 1.35 nM | 15.001 | 1-Dmax, Mean [5]: 84%; 1-Dmax, single measurements [5]: 84.7% and 83.2%; DC50 ([5]; read-out: DC50, Mean): 8000 nM; DC50 [5, 9]: 7000 nM and 9000 nM; CACO permeability PEAB (Caco-2 monolayers; Caco-2): <0.0000086 cm/sec; Kd [3, 10]: 1.8 ± 0.7 nM; 1-Dmax, Mean [6]: 92%; 1-Dmax, single measurements [6]: 86.9% and 92.9% and 97.0%; DC50 ([6]; read-out: DC50, Mean): 5200 nM; DC50 [6, 9]: 6100 nM and 5000 nM and 4500 nM
CO[C@H](c1ccc(OCc2cn(CCCCCn3cc(COc4ccc([C@@H](OC)[C@@H]5NC(=O)[C@H](C)NC(=O)[C@H](C[C@@H](C)CO)N(C)C(=O)[C@H](Cc6cn(C)c7ccccc67)N(C)C(=O)[C@H](C(C)C)NC(=O)[C@H](CC(C)C)N(C)C(=O)[C@H](C(C)C)NC5=O)cc4)nn3)nn2)cc1)[C@@H]1NC(=O)[C@H](C)NC(=O)[C@H](C[C@@H](C)CO)N(C)C(=O)[C@H](Cc2cn(C)c3ccccc23)N(C)C(=O)[C@H](C(C)C)NC(=O)[C@H](CC(C)C)N(C)C(=O)[C@H](C(C)C)NC1=O [SI-66] | 9.964 | 10 | – | – | – | < 4.8 | – | 3.7 10-6 cm s-1 | – | 15 | – | – | – | – | – | – | – | – | – | – | Hepatocyte Human [2]: 12 %Qh; Papp B→A (in vitro; Caco-2, Caco-2 permeability P (B-A)): < 2.5 ×10⁻⁶ cm/s; Kd [3, 11]: 7 ± 2 nM; koff ([3]; SPR dissociation rate constant, read-out: koff ClpC1-NTD Mean ± SD): 0.01 s⁻¹; Kd [3, 12]: 8.57 nM and 6.41 nM
